Experimental data from ChEMBL document CHEMBL4706525, “Designing an eEF2K-Targeting PROTAC small molecule that induces apoptosis in MDA-MB-231 cells” (Eur J Med Chem, 2020).
Active and inactive are the calls of the source. The calls are words filed in the database; no cut-off is given here.

Columns and labels:
[1] = biological target: Protein cereblon/Eukaryotic elongation factor 2 kinase (Homo sapiens) (UniProt O00418+Q96SW2); assay: Protac activity at eEF2K/E3 ubiquitin ligase in human MDA-MB-231 cells assessed as degradation of eEF2K at 200 uM measured after 24 hrs by western blot assay; type: cell-based
[2] = biological target: T1, Eukaryotic elongation factor 2 kinase (Homo sapiens, UniProt O00418); assay: Inhibition of eEF2K (unknown origin)
T1 sequence (O00418 whole entry): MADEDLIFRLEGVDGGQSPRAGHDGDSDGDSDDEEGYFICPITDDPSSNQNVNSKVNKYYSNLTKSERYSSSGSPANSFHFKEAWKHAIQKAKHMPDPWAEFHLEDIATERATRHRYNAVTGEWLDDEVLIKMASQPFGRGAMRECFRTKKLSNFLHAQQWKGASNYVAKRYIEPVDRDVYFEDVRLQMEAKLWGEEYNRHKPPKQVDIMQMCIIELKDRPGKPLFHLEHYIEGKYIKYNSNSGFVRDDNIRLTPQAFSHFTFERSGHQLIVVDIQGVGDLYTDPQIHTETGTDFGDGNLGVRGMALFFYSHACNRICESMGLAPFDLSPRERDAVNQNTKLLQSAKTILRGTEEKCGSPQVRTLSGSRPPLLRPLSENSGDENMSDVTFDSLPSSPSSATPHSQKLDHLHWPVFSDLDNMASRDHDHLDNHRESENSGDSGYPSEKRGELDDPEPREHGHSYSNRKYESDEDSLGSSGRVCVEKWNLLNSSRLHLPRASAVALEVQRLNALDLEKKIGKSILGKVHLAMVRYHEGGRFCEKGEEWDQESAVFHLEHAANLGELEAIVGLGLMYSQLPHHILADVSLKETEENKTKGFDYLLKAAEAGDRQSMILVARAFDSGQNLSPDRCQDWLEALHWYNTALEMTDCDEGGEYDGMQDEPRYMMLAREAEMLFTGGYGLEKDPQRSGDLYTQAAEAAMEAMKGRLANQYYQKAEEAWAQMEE

Protein cereblon/Eukaryotic elongation factor 2 kinase (Homo sapiens), sequence (Q96SW2 whole entry, looked up, one chain of several): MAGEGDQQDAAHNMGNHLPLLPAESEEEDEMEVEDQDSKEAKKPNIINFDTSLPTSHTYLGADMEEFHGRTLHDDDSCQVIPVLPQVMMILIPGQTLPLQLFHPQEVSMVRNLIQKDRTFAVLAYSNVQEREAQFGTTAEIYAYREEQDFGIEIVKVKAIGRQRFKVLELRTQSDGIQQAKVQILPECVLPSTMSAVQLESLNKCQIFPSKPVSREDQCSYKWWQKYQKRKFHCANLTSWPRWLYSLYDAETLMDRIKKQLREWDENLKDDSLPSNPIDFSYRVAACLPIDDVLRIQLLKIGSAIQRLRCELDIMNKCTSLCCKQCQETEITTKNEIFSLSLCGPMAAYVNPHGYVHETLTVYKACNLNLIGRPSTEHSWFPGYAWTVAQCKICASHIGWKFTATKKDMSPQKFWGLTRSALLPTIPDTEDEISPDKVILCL

| Activity [1] | SMILES | IC50 [2] [nM] |
| --- | --- | --- |
| 10% | CCn1c(=O)n(CC(=O)NCCNC(=O)COc2cccc3c2C(=O)N(C2CCC(=O)NC2=O)C3=O)c(=O)c2cc(C(N)=O)c(N)nc21 (centres undefined) | – |
| – | Cc1ccc(C2=NC(C)(O)CC(C(C)C)[Se]2)cc1 (centres undefined) | 310 |
| inactive | NC(=O)c1cc2c(=O)n(CC(=O)NCCOCCNc3cccc4c3C(=O)N(C3CCC(=O)NC3=O)C4=O)c(=O)n(C3CC3)c2cc1N (centres undefined) | – |
| 32% | CCn1c(=O)n(CC(=O)NCCCCCNC(=O)COc2cccc3c2C(=O)N(C2CCC(=O)NC2=O)C3=O)c(=O)c2cc(C(N)=O)c(N)cc21 (centres undefined) | – |
| 20% | CCn1c(=O)n(CC(=O)NCCCNc2cccc3c2C(=O)N(C2CCC(=O)NC2=O)C3=O)c(=O)c2cc(C(N)=O)c(N)nc21 (centres undefined) | – |
| 15.4% | CCn1c(=O)n(CC(=O)NCCCNC(=O)COc2cccc3c2C(=O)N(C2CCC(=O)NC2=O)C3=O)c(=O)c2cc(C(N)=O)c(N)cc21 (centres undefined) | – |
| inactive | NC(=O)c1cc2c(=O)n(CC(=O)NCCCNC(=O)COc3cccc4c3C(=O)N(C3CCC(=O)NC3=O)C4=O)c(=O)n(C3CC3)c2cc1N (centres undefined) | – |
| 35% | CCn1c(=O)n(CC(=O)NCCCCNc2cccc3c2C(=O)N(C2CCC(=O)NC2=O)C3=O)c(=O)c2cc(C(N)=O)c(N)nc21 (centres undefined) | – |
| inactive | NC(=O)c1cc2c(=O)n(CC(=O)NCCCCCNC(=O)COc3cccc4c3C(=O)N(C3CCC(=O)NC3=O)C4=O)c(=O)n(C3CC3)c2cc1N (centres undefined) | – |
| inactive | NC(=O)c1cc2c(=O)n(CC(=O)NCCCNc3cccc4c3C(=O)N(C3CCC(=O)NC3=O)C4=O)c(=O)n(C3CC3)c2nc1N (centres undefined) | – |
| 35.3% | CCn1c(=O)n(CC(=O)NCCCCCCNC(=O)COc2cccc3c2C(=O)N(C2CCC(=O)NC2=O)C3=O)c(=O)c2cc(C(N)=O)c(N)nc21 (centres undefined) | – |
| inactive | NC(=O)c1cc2c(=O)n(CC(=O)NCCCCCNc3cccc4c3C(=O)N(C3CCC(=O)NC3=O)C4=O)c(=O)n(C3CC3)c2cc1N (centres undefined) | – |
| 26% | CCn1c(=O)n(CC(=O)NCCCCNC(=O)COc2cccc3c2C(=O)N(C2CCC(=O)NC2=O)C3=O)c(=O)c2cc(C(N)=O)c(N)nc21 (centres undefined) | – |
| 24% | CCn1c(=O)n(CC(=O)NCCCCCNc2cccc3c2C(=O)N(C2CCC(=O)NC2=O)C3=O)c(=O)c2cc(C(N)=O)c(N)cc21 (centres undefined) | – |
